# Experimental data from publication PMC7738871, “Covalent modification of Keap1 at Cys77 and Cys434 by pubescenoside a suppresses oxidative stress-induced NLRP3 inflammasome activation in myocardial ischemia-reperfusion injury” (Theranostics, 2021).
# What was measured:
# [1] = molecular target: T1, Keap1 C23S (Homo sapiens, UniProt Q14145, C23S); assay: ITC titration of PBA with Keap1-C23S; assay type: binding; conditions: 25 ℃
# T1 construct: His (N); made in house; host or cells: E. coli BL21 (DE3)
# Description: (§1) The Keap1 was amplified by PCR using a human cDNA library, and was subcloned into the vector pET28-TEV, which contained one tobacco etch virus (TEV) protease cleavage site at the upstream multiple cloning site. The protein was expressed in E. coli BL21 (DE3) cells and incubated at 37 °C until the OD600 value reached 0.6, using 0.2 mM isopropyl β-D-1-thiogalactopyranoside (IPTG) overnight induction at 18 °C. The cells were isolated by centrifugation, resuspended in ice-cold lysis buffer and lysed by cryogenic overpressure cell breaker at 1,200 psi. The lysates were centrifuged for 60 min at 14,000 rpm to obtain the supernatant. Gravity flow purification of Keap1 protein was obtained at room temperature using 1 mL of Ni-NTA and eluted in buffer containing 250 mM imidazole, followed by 1 mL of HiTrap QHP for the second step purification. The final protein was purified and validated by Superdex 200 10/300GL resin.
# (§2) The mutant plasmid DNA was obtained by PCR. The PCR products were cleaved by DpnI restriction enzymes. The restriction endonuclease-cleaved mixture was subsequently transformed into E. coli DH5α. Colonies were evaluated by colony PCR and sequenced. The mutant plasmid was transformed into E. coli BL21 (DE3) after successful sequencing. The steps for expression and purification of all recombinants were described above.
# (§3) Isothermal calorimetry (ITC) titration experiments were performed at 25 °C. WT Keap1, Keap1 mutants and PBA were dissolved in binding buffer (40 mM Tris-HCl pH 8.0, 250 mM NaCl). In a typical experiment, 60 μL of PBA (1 mM) was injected 19 times at 2-min intervals from a stirring syringe into the sample cell containing 300 μL of WT protein or mutants (30 μM). The first injection was 0.4 μL of PBA, and the subsequent 18 injections were 2 μL each time. The site-binding models were determined by using MicroCal Origin software.
# [2] = molecular target: T2, Keap1 C38S (Homo sapiens, UniProt Q14145, C38S); assay: ITC titration of PBA with Keap1-C38S; assay type: binding; conditions: 25 ℃
# T2 construct: His (N); made in house; host or cells: E. coli BL21 (DE3)
# Description: as §1, §2, §3
# [3] = tested on: LAD-induced myocardial ischemia-reperfusion model in mice; assay: LAD-induced myocardial ischemia-reperfusion model; assay type: in vivo, mouse
# Description: The experimental procedures and protocols were approved by the Committee on Ethical USE of Animals of International Institute for Translational Chinese Medicine, Guangzhou University of Chinese Medicine (No. IITCM-20180115). Adult male C57BL/6 mice were purchased from the Laboratory Animal Center, Sun Yat-Sen University (Guangzhou, Guangdong, China), and Nrf2 knockout mice were obtained from Riken. Adult male C57BL/6 or Nrf2 knockout mice were treated with 30 mg/kg PBA or an equal volume of vehicle 15 min prior to reperfusion. Mice were divided into 6 groups: (1) Wild-type sham (n = 10): C57BL/6 mice received vehicle, as the sham group; (2) Wild-type AMI/R group (n = 10): C57BL/6 mice received vehicle (i.p.) 15 min before reperfusion; (3) Wild-type AMI/R plus PBA group (n = 10): C57BL/6 mice received 30 mg/kg PBA (i.p.) 15 min before reperfusion; (4) Nrf2 knockout sham (n = 8) : Nrf2 knockout mice received vehicle (i.p.), as in the sham group; (5) Nrf2 knockout AMI/R group (n = 8): Nrf2 knockout mice received vehicle (i.p.) 15 min before reperfusion; (6) Nrf2 knockout AMI/R plus PBA group (n = 8): Nrf2 knockout mice received 30 mg/kg PBA (i.p.) 15 min before reperfusion. PBA was dissolved in 0.9% NaCl buffer containing 2% EtOH. The vehicle was 0.9% NaCl buffer containing 2% EtOH.
# The C57BL/6 mice or Nrf2 knockout mice underwent myocardial ischemia-reperfusion injury as described previously. In brief, mice were anaesthetized by i.p. injection of sodium pentobarbital at a dose of 50 mg/kg and ventilated under a pressure-control VentStar R415 ventilator (RWD Life Science Inc., Shenzhen, China). Following thoracotomy between the 3rd and 4th intercostal spaces, the mouse heart was exposed. The LAD was ligated with an 8-0 silk suture and the PE10 tube for 30 min. PBA and vehicle were i.p. injected 15 min prior to reperfusion. After 30 min of ischemia, the suture with PE10 tube was removed. At the end of 24 h of reperfusion, the LAD was relegated, and 1% Evans blue dye was injected to measure the area at risk (AAR). The hearts of the mice were collected, and frozen at -80 °C for 10 min and cut into 5 slices. The slices were incubated with 1% 2,3,5-triphenyltetrazolium chloride (TTC, Santa Cruz, USA) at 37 °C for 15 min and fixed with 4% paraformaldehyde overnight. The slices were captured and the areas of AAR and IA were quantified by using ImageJ software.
# Hemodynamic measurements were performed using a PV-loop catheter (Transonic Systems Inc., Ithaca, NY, USA). Hemodynamic measurements were analysed using Ponemah 7700 modules software according to a standardized protocol. The maximum rate of rise of left ventricular pressure increase (+dp/dtmax) and the maximum rate of rise of left ventricular pressure decrease (-dp/dtmax) were calculated for all mice.
# Echocardiography was performed on mice at the end of reperfusion. In brief, mice were re-anesthetized with isoflurane and subjected to the Vevo 2100 System (VisualSonics Inc., Toronto, Canada). M-mode was used to obtain LV dimensions in diastole and systole according to the standard procedures and calculations. Left ventricular end systolic diameter (LVESD), left ventricular end diastolic diameter (LVEDD), left ventricular end systolic volume (LVSV) and left ventricular end diastolic volume (LVDV) were measured. And the left ventricular ejection fraction (LVEF) and left ventricular fractional shortening (LVFS) values were calculated using Vevostrain software as parameters indicating cardiac function.
# [4] = 30 mg/kg i.p., 24 hours after AMI/R
# T2 sequence (Q14145 whole entry C38S): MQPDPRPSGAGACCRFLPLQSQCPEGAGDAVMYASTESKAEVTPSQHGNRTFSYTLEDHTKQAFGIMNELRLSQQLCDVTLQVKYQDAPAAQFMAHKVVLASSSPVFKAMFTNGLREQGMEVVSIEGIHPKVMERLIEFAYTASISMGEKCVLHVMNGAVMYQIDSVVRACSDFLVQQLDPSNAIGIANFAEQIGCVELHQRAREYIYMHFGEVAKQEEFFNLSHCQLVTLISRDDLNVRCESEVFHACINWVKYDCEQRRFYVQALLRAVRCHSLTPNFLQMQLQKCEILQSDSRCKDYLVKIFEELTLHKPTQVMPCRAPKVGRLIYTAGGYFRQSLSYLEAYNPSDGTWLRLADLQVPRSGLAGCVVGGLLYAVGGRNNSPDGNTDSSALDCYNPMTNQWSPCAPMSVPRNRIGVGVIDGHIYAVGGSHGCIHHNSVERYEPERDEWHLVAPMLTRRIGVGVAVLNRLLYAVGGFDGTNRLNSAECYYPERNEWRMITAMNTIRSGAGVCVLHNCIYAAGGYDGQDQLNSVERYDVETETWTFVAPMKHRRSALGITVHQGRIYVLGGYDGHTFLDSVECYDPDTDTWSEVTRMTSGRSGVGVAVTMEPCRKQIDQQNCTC
# T1 sequence (Q14145 whole entry C23S): as the sequence (Q14145 whole entry C38S) above, with C23S, S38C counted along it
smiles,measurement,setting,value
"C=C(COC(=O)C=Cc1ccc(O)c(O)c1)C(O)COC1OC(CO)C(O)C(O)C1O (stereo not drawn) [PBA, pubescenoside A]",Kd,[1],9.78 µM
same,T△S,[1],3.22 ± 0.00 kcal/mol
same,△G,[1],-6.84 ± 0.00 kcal/mol
same,△H,[1],-3.62 ± 0.241 kcal/mol
same,Kd,[2],8.59 µM
same,T△S,[2],2.32 ± 0.00 kcal/mol
same,△H,[2],-4.59 ± 0.199 kcal/mol
same,myofibrillar structure (H&E staining),[3]; 30 mg/kg,preserved myofibrillar structure
same,recruitment of inflammatory cells (H&E staining),[3]; 30 mg/kg,reduced the recruitment of inflammatory cells
same,cardiac infarct size,"[3]; 30 mg/kg i.p. 15 min before reperfusion, 30 min ischemia, 24 h reperfusion",significantly reduce
same,level of CK-MB,"[3]; 30 mg/kg i.p., 30 min ischemia, 24 h reperfusion, blood, ELISA",significantly reduce
same,+dp/dtmax,[3]; [4],increasing
same,-dp/dtmax,[3]; [4],increasing
same,LVEF,[3]; [4],increasing
same,LVESD,[3]; [4],decreasing
same,LVFS,[3]; [4],increasing
same,LVSV,[3]; [4],decreasing
same,NLRP3 inflammasome activation in heart tissue,"[3]; AMI/R-injured mice, western blot",attenuated
